Data as given in ChEMBL document CHEMBL3244075, “Synthesis and hypoglycemic activity of some substituted 2-arylthiazolo[3,2-a]pyridinium salts” (J Med Chem, 1978).
The source made the active and inactive calls. The rule behind the calls is not given here.

Experiments:
Rattus norvegicus [1] = test: Hypoglycemic activity in 48 hrs-fasted rat assessed as change in blood glucose level at dose equivalent to 102 mg of free base/kg, po measured at 3 hrs relative to control; type: functional
Rattus norvegicus [2] = test: Hypoglycemic activity in 48 hrs-fasted rat assessed as change in blood glucose level at dose equivalent to 102 mg of free base/kg, po measured at 2 hrs relative to control; type: functional
Rattus norvegicus [3] = test: Hypoglycemic activity in 48 hrs-fasted rat assessed as change in blood glucose level at dose equivalent to 102 mg of free base/kg, po measured at 5 hrs relative to control; type: functional
Rattus norvegicus [4] = test: Hypoglycemic activity in 48 hrs-fasted rat assessed as change in blood glucose level at dose equivalent to 102 mg of free base/kg, po measured at 4 hrs relative to control; type: functional
Rattus norvegicus [5] = test: Hypoglycemic activity in 48 hrs-fasted rat assessed as change in blood glucose level at dose equivalent to 102 mg of free base/kg, po measured at 1 hr relative to control; type: functional
Rattus norvegicus [6] = organism: Rattus norvegicus; test: Hypoglycemic activity in streptozotocin-induced diabetic rat model; type: functional, organism-based
Rattus norvegicus [7] = test: Hypoglycemic activity in 48 hrs-fasted rat assessed as change in blood glucose level at dose equivalent to 34 mg of free base/kg, po measured at 5 hrs relative to control; type: functional, organism-based
Kidney = test: Inhibition of glucose production from lactate in rat kidney cortex at 10^-4 M; type: functional, tissue-based
Rattus norvegicus [8] = organism: Rattus norvegicus; test: Hypoglycemic activity in normal fed rat; type: functional, organism-based
Rattus norvegicus [9] = test: Hypoglycemic activity in 48 hrs-fasted rat assessed as change in blood glucose level at dose equivalent to 68 mg of free base/kg, po measured at 5 hrs relative to control; type: functional
Rattus norvegicus [10] = test: Hypoglycemic activity in 48 hrs-fasted rat assessed as change in blood glucose level at dose equivalent to 68 mg of free base/kg, po measured at 3 hrs relative to control; type: functional
Rattus norvegicus [11] = test: Hypoglycemic activity in 48 hrs-fasted rat assessed as change in blood glucose level at dose equivalent to 68 mg of free base/kg, po measured at 4 hrs relative to control; type: functional
Rattus norvegicus [12] = test: Toxicity in 48 hrs-fasted rat assessed as elevation in hepatic triglyceride level at dose equivalent to 102 mg of free base/kg, po relative to control; type: organism-based; conditions: in vivo
Rattus norvegicus [13] = test: Hypoglycemic activity in 48 hrs-fasted rat assessed as change in blood glucose level at dose equivalent to 68 mg of free base/kg, po measured at 1 hr relative to control; type: functional
Rattus norvegicus [14] = test: Hypoglycemic activity in 48 hrs-fasted rat assessed as change in blood glucose level at dose equivalent to 68 mg of free base/kg, po measured at 2 hrs relative to control; type: functional
Rattus norvegicus [15] = test: Toxicity in 48 hrs-fasted rat assessed as elevation in hepatic triglyceride level at dose equivalent to 34 mg of free base/kg, po relative to control; type: organism-based; conditions: in vivo
Rattus norvegicus [16] = test: Toxicity in streptozotocin-induced diabetic rat model assessed as elevation in hepatic triglyceride level up to dose equivalent to 136 mg of free base/kg, po relative to control; type: organism-based; conditions: in vivo

Row | Compound | Activity (Rattus norvegicus [1]) | Activity (Rattus norvegicus [2]) | Activity (Rattus norvegicus [3]) | Activity (Rattus norvegicus [4]) | Activity (Rattus norvegicus [5]) | other results
1 | [O-][Cl+3]([O-])([O-])[O-].c1cc[n+]2ccsc2c1 | -15% | -20% | -12% | -13% | -14% | –
2 | CC(=O)Nc1cccc(-c2c[n+]3ccccc3s2)c1.[O-][Cl+3]([O-])([O-])[O-] | 3% | 8% | 4% | 9% | 12% | –
3 | O.[Cl-].c1ccc(-c2ccc(-c3c[n+]4ccccc4s3)cc2)cc1 | -12% | -12% | 3% | 13% | -7% | –
4 | O=S(=O)([O-])c1ccc(-c2ccc(-c3c[n+]4ccccc4s3)cc2)cc1 | 13% | 3% | 4% | 2% | 3% | –
5 | c1ccc(-c2c[n+]3ccccc3s2)cc1 | – | – | – | – | – | Activity (Rattus norvegicus [6]): Active; Activity (Rattus norvegicus [7]): Active; Activity (Kidney): Active; Activity (Rattus norvegicus [8]): Active
6 | O=C([O-])C(F)(F)F.c1ccc(-c2c[n+]3ccccc3s2)cc1 | – | -9% | – | – | -7% | Activity (Rattus norvegicus [9]): -24%; Activity (Rattus norvegicus [10]): -15%; Activity (Rattus norvegicus [11]): -18%
7 | Cc1ccc[n+]2cc(-c3ccccc3)sc12.O.[O-][Cl+3]([O-])([O-])[O-] | -51% | -42% | -50% | -59% | -17% | Activity (Rattus norvegicus [12]): 200%
8 | O.[Cl-].c1ccc(-c2c[n+]3ccccc3s2)cc1 | – | – | – | – | – | Activity (Rattus norvegicus [9]): -39%; Activity (Rattus norvegicus [10]): -31%; Activity (Rattus norvegicus [13]): -4%; Activity (Rattus norvegicus [11]): -39%; Activity (Rattus norvegicus [14]): -13%
9 | O.O=S(=O)([O-])O.c1ccc(-c2c[n+]3ccccc3s2)cc1 | – | – | – | – | – | Activity (Rattus norvegicus [9]): -30%; Activity (Rattus norvegicus [10]): -21%; Activity (Rattus norvegicus [13]): -6%; Activity (Rattus norvegicus [11]): -39%; Activity (Rattus norvegicus [14]): -16%
10 | Nc1cccc(-c2c[n+]3ccccc3s2)c1.[O-][Cl+3]([O-])([O-])[O-] | -8% | -16% | -8% | -7% | -10% | –
11 | Brc1ccc(-c2c[n+]3ccccc3s2)cc1.O.O=S(=O)([O-])O | -1% | -4% | 1% | -5% | 9% | –
12 | CS(=O)(=O)c1ccc(-c2c[n+]3ccccc3s2)cc1.[O-][Cl+3]([O-])([O-])[O-] | -6% | -8% | -2% | -6% | 3% | –
13 | [O-][Cl+3]([O-])([O-])[O-].c1ccc(-c2c[n+]3ccccc3s2)cc1 | – | – | – | – | – | Activity (Rattus norvegicus [9]): -28%; Activity (Rattus norvegicus [10]): -17%; Activity (Rattus norvegicus [13]): -4%; Activity (Rattus norvegicus [11]): -33%; Activity (Rattus norvegicus [15]): Toxic; Activity (Rattus norvegicus [12]): 200%; Activity (Rattus norvegicus [14]): -8%; Activity (Rattus norvegicus [16]): Non-toxic
14 | O.[Cl-].c1csc(-c2c[n+]3ccccc3s2)c1 | -13% | -2% | 0% | -13% | 1% | –
15 | Cc1ccc2sc(-c3ccccc3)c[n+]2c1.[O-][Cl+3]([O-])([O-])[O-] | -26% | -30% | -16% | -27% | 19% | –
16 | Cc1cc[n+]2cc(-c3ccccc3)sc2c1.[O-][Cl+3]([O-])([O-])[O-] | -28% | -4% | -22% | -29% | 14% | –
17 | CC(C)Oc1cccc(-c2c[n+]3ccccc3s2)c1.[O-][Cl+3]([O-])([O-])[O-] | -4% | -1% | -10% | 9% | 4% | –
18 | O.O=S(=O)([O-])O.O=[N+]([O-])c1cccc(-c2c[n+]3ccccc3s2)c1 | -6% | -7% | 0% | -6% | -10% | –
19 | Nc1ccc(-c2c[n+]3ccccc3s2)cc1.O.[O-][Cl+3]([O-])([O-])[O-] | -20% | 1% | -14% | -7% | -8% | –
20 | O=S(=O)([O-])c1ccc(-c2c[n+]3ccccc3s2)s1 | -5% | 5% | 6% | -6% | -6% | –
21 | CSc1ccc(-c2c[n+]3ccccc3s2)cc1.O.[O-][Cl+3]([O-])([O-])[O-] | -14% | -11% | -2% | -6% | -9% | –
22 | O.[O-][Cl+3]([O-])([O-])[O-].c1ccc(-c2csc3cccc[n+]23)cc1 | -28% | -16% | -19% | -12% | -12% | –
23 | CN(C)/C=N/c1cccc(-c2c[n+]3ccccc3s2)c1.O.[O-][Cl+3]([O-])([O-])[O-] | -1% | 0% | 22% | -1% | 1% | –
